Entries after “also recorded” stand apart in the source; their conditions may differ. Read-outs that look alike come from different tables or passages of the source.
Key:
KB tumors = test: Inhibition of tumor growth, s.c. KB tumors in nu/nu mice; format: in vivo; design: key to In vivo activity (e): CR = complete response, where tumor volume, as defined herein, during the observation period was zero for all test animals in the group; conditions: for In vivo activity (e): subcutaneous KB tumor in nu/nu mice
Experimental: METHOD. Inhibition of Tumor Growth in Mice. […] For tumor cell inoculation, 1×10^6 M109 cells (a syngeneic lung carcinoma) in Balb/c strain, or 1×10^6 KB cells in nu/nu strain, in 100 μL are injected in the subcutis of the dorsal medial area (right axilla).
METHOD. Toxicity as Measured by Weight Loss. The percentage weight change of the test animals is determined on selected days post-tumor inoculation (PTI), and during dosing. The results are graphed.

KB cells (FR+) = format: cell-based, Human; conditions: for In vitro specificity (fold) (d): IC50 competed group vs non-competed group
Experimental: METHOD. Inhibition of Cellular DNA Synthesis. The compounds described herein are evaluated using an in vitro cytotoxicity assay that predicts the ability of the drug to inhibit the growth of folate receptor-positive cells, such as KB cells, RAW264.7 macrophages, and the like. It is to be understood that the choice of cell type can made on the basis of the susceptibility of those selected cells to the drug that forms the conjugate. The test compounds are comprised of folate linked to a respective chemotherapeutic drug, as prepared according to the processes described herein. The test cells are exposed to varying concentrations of folate-drug conjugate, and also in the absence or presence of at least a 100-fold excess of folic acid to assess activity as being specific to folate receptor mediation.
EXAMPLE. Conjugates of cytotoxic drugs described herein are active against KB cells. The activity is mediated by the folate receptor as indicated by competition experiments using co-administered folic acid. KB cells are exposed for up to 7 h at 37° C. to the indicated concentrations of folate-drug conjugate in the absence or presence of at least a 100-fold excess of folic acid. The cells are then rinsed once with fresh culture medium and incubated in fresh culture medium for 72 hours at 37° C. Cell viability was assessed using a ^3H-thymidine incorporation assay.
METHOD. In vitro activity against various cancer cell lines. IC50 values are generated for various cell lines. Cells are heavily seeded in 24-well Falcon plates and allowed to form nearly confluent monolayers overnight. Thirty minutes prior to the addition of the test compound, spent medium is aspirated from all wells and replaced with fresh folate-deficient RPMI medium (FFRPMI). A subset of wells are designated to receive media containing 100 μM folic acid. The cells in the designated wells are used to determine the targeting specificity. Without being bound by theory it is believed herein that the cytotoxic activity produced by test compounds in the presence of excess folic acid, i.e. where there is competition for FR binding, corresponds to the portion of the total activity that is unrelated to FR-specific delivery. Following one rinse with 1 mL of fresh FFRPMI containing 10% heat-inactivated fetal calf serum, each well receives 1 mL of medium containing increasing concentrations of test compound (4 wells per sample) in the presence or absence of 100 μM free folic acid as indicated. Treated cells are pulsed for 2 h at 37° C., rinsed 4 times with 0.5 mL of media, and then chased in 1 mL of fresh medium up to 70 h. Spent medium is aspirated from all wells and replaced with fresh medium containing 5 μCi/mL ^3H-thymidine. Following a further 2 h 37° C. incubation, cells are washed 3 times with 0.5 mL of PBS and then treated with 0.5 mL of ice-cold 5% trichloroacetic acid per well. After 15 min, the trichloroacetic acid is aspirated and the cell material solubilized by the addition of 0.5 mL of 0.25 N sodium hydroxide for 15 min. A 450 μL aliquot of each solubilized sample is transferred to a scintillation vial containing 3 mL of Ecolume scintillation cocktail and then counted in a liquid scintillation counter. Final results are expressed as the percentage of ^3H-thymidine incorporation relative to untreated controls.

[1] = Plasma stability / free drug release after s.c. dose (EC1496 vs EC0746); format: in vivo, rats
Experimental: METHOD. Human serum stability. Compounds described herein are tested in human serum for stability using conventional protocols and methods. Briefly, test compound is administered to the test animal, such as by subcutaneous injection. The plasma concentration of the conjugate, and optionally one or more metabolites, is monitored over time. The results are graphed to determine Cmax, Tmax, half-life, and AUC for the test compound and metabolites.
EXAMPLE. […] EC1495 and EC0746 (comparator compound) are each administered at 500 nmol/kg by subcutaneous injection. The plasma concentration of the conjugate and the metabolites (aminopterin and aminopterin hydrazide) are monitored over time. […] As also shown in the following table, free drug is released as the parent aminopterin and the hydrazide derivative (EC0470).

[2] = target: T1, folate receptors (FRs) on KB cells (Homo sapiens, UniProt P15328); test: Relative affinity assay (3H-folic acid competition) on KB cells; format: binding; conditions: for Relative Affinity (a) compared to folic acid: folic acid = 1, in 10% serum/FDRPMI
T1 construct: FR-positive KB cells are heavily seeded into 24-well cell culture plates; endogenous in cells; host or cells: KB cells
T1 sequence (P15328 25-234): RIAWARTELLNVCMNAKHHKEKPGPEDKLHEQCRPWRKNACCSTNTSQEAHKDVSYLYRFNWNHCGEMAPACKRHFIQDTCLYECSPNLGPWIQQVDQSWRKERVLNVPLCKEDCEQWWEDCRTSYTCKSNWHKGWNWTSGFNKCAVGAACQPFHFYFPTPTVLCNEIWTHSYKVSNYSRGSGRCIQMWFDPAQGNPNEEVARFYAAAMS
Experimental: METHOD. Relative Affinity Assay. The affinity for folate receptors (FRs) relative to folate is determined according to a previously described method (Westerhof, G. R., J. H. Schornagel, et al. (1995) Mol. Pharm. 48: 459-471) with slight modification. Briefly, FR-positive KB cells are heavily seeded into 24-well cell culture plates and allowed to adhere to the plastic for 18 h. Spent incubation media is replaced in designated wells with folate-free RPMI (FFRPMI) supplemented with 100 nM ^3H-folic acid in the absence and presence of increasing concentrations of test article or folic acid. Cells are incubated for 60 min at 37° C. and then rinsed 3 times with PBS, pH 7.4. Five hundred microliters of 1% SDS in PBS, pH 7.4, is added per well. Cell lysates are then collected and added to individual vials containing 5 mL of scintillation cocktail, and then counted for radioactivity. Negative control tubes contain only the ^3H-folic acid in FFRPMI (no competitor). Positive control tubes contain a final concentration of 1 mM folic acid, and CPMs measured in these samples (representing non-specific binding of label) are subtracted from all samples.

[3] = Plasma clearance after s.c. administration; format: in vivo, Lewis rats; conditions: EC1669 500 nmol/kg s.c.
Experimental: METHOD. Plasma clearance. In vivo studies include a minimum of 3 test animals, such as rats, per time point. Illustratively, female Lewis rats with jugular vein catheters (Harlan, regular rodent diet) are given a single subcutaneous injection of test compound, such as EC1669 at 500 nmol/kg. Whole blood samples (300 μL) are collected at the following time points: 1 min, 10 min, 30 min, 1 h, 2 h, 3 h, 4 h, 8 h, and 12 h after injection. The blood samples are placed into anti-coagulant tubes containing 1.7 mg/mL of K3-EDTA and 0.35 mg/mL of N-maleoyl-beta-alanine (0.35 mg/mL) in a 0.15% acetic acid solution. Plasma samples are obtained by centrifugation for 3 min at ˜2,000 g and stored at −80° C. The amounts of test compound in the plasma and any metabolites, such as EC1669 and its two active metabolites aminopterin (AMT) and AMT hydrazide (EC0470), respectively, are quantified by LC-MS/MS.

[4] = IC50 for test compound when competed with excess folic acid, read-out: 50% competition (nM) (c)
[5] = as determined by thymidine incorporation, read-out: In vitro IC50 (nM) (b)

Row | Compound | In vivo activity (e) (KB tumors) | In vitro specificity (fold) (d) (KB cells (FR+)) | Relative Affinity (a) compared to folic acid [2] | IC50 (KB cells (FR+); [4]) [nM] | IC50 (KB cells (FR+); [5]) [nM] | other results
1 | N=c1[nH]c(N)nc2ncc(CNc3ccc(C(=O)N[C@@H](CCC(=O)NNC(=O)OCCSSC[C@H](NC(=O)[C@H](CCC(=O)NC[C@H](O)[C@@H](O)[C@H](O)[C@H](O)CO)NC(=O)[C@H](CCC(=O)O)NC(=O)[C@H](CCC(=O)NC[C@H](O)[C@@H](O)[C@H](O)[C@H](O)CO)NC(=O)[C@H](CCC(=O)O)NC(=O)[C@H](CCC(=O)NC[C@H](O)[C@@H](O)[C@H](O)[C@H](O)CO)NC(=O)CC[C@H](NC(=O)c4ccc(NCc5cnc6nc(N)[nH]c(=O)c6n5)cc4)C(=O)O)C(=O)O)C(=O)O)cc3)nc12 [EC0531, reference compound] | CR | 237 |  |  |  | 
2 | CCCC(=O)OCN(C(=O)[C@@H](NC(=O)[C@H]1CCCCN1C)C(C)CC)[C@H](C[C@H](OC(C)=O)c1nc(C(=O)N[C@H](Cc2ccc(O)cc2)C[C@H](C)C(=O)NNC(=O)OCCSSC[C@H](NC(=O)[C@H](CCC(=O)NC[C@H](O)[C@@H](O)[C@H](O)[C@H](O)CO)NC(=O)[C@H](CCC(=O)O)NC(=O)[C@H](CCC(=O)NC[C@H](O)[C@@H](O)[C@H](O)[C@H](O)CO)NC(=O)[C@H](CCC(=O)O)NC(=O)[C@H](CCC(=O)NC[C@H](O)[C@@H](O)[C@H](O)[C@H](O)CO)NC(=O)CC[C@H](NC(=O)c2ccc(NCc3cnc4nc(N)[nH]c(=O)c4n3)cc2)C(=O)O)C(=O)O)cs1)C(C)C (some centres unmarked) [EC0746, reference compound] |  |  |  |  |  | Free drug released (%): AMT ([1]; 500 nmol/kg s.c., plasma): 11.0%; Free drug released (%): AMT-hydrazide (EC0470) ([1]; 500 nmol/kg s.c., plasma): 7.4%; Free drug released (%): Total ([1]; 500 nmol/kg s.c., plasma): 18.4%; drug released relative to EC1496 ([1]; after a subcutaneous dose in rats): more than 2 fold
3 | CCCC(=O)OCN(C(=O)[C@@H](NC(=O)[C@H]1CCCCN1C)C(C)CC)[C@H](C[C@@H](OC(C)=O)c1nc(C(=O)N[C@@H](Cc2ccc(O)cc2)C[C@H](C)C(=O)NNC(=O)OCCSSC[C@@H](NC(=O)[C@@H](CC(=O)O)NC(=O)[C@@H](CC(=O)O)NC(=O)[C@@H](CCCNC(=N)N)NC(=O)[C@@H](CC(=O)O)NC(=O)CC[C@@H](NC(=O)c2ccc(NCc3cnc4nc(N)[nH]c(=O)c4n3)cc2)C(=O)O)C(=O)O)cs1)C(C)C (some centres unmarked) [EC1299] | CR | 778 | 0.29 | 700 | 0.9 | 
4 | CCCC(=O)OCN(C(=O)[C@@H](NC(=O)[C@H]1CCCCN1C)C(C)CC)[C@H](C[C@@H](OC(C)=O)c1nc(C(=O)N[C@@H](Cc2ccc(O)cc2)C[C@H](C)C(=O)NNC(=O)OCCSSC(C)(C)[C@@H](NC(=O)[C@@H](CC(=O)O)NC(=O)[C@@H](CC(=O)O)NC(=O)[C@@H](CCCNC(=N)N)NC(=O)[C@@H](CC(=O)O)NC(=O)CC[C@@H](NC(=O)c2ccc(NCc3cnc4nc(N)[nH]c(=O)c4n3)cc2)C(=O)O)C(=O)O)cs1)C(C)C (some centres unmarked) [EC1393] |  | 300 | 0.25 |  |  | 
5 | CCCC(=O)OCN(C(=O)[C@@H](NC(=O)[C@H]1CCCCN1C)C(C)CC)[C@H](C[C@@H](OC(C)=O)c1nc(C(=O)N[C@@H](Cc2ccc(O)cc2)C[C@H](C)C(=O)NNC(=O)OCCSSC[C@@H](NC(=O)[C@H](CC(=O)O)NC(=O)[C@H](CC(=O)O)NC(=O)[C@H](CCCNC(=N)N)NC(=O)[C@H](CC(=O)O)NC(=O)CC[C@H](NC(=O)c2ccc(NCc3cnc4nc(N)[nH]c(=O)c4n3)cc2)C(=O)O)C(=O)O)cs1)C(C)C (some centres unmarked) [EC1548] | CR | 78 | 0.23 | 350 | 4.4 | 
6 | CCCC(=O)OCN(C(=O)[C@@H](NC(=O)[C@H]1CCCCN1C)C(C)CC)C(C[C@@H](OC(C)=O)c1nc(C(=O)N[C@@H](Cc2ccc(O)cc2)C[C@H](C)C(=O)NNC(=O)OCCSSC[C@@H](NC(=O)[C@@H](CC(=O)O)NC(=O)[C@H](CC(=O)O)NC(=O)[C@H](CCCNC(=N)N)NC(=O)[C@H](CC(=O)O)NC(=O)CC[C@H](NC(=O)c2ccc(NCc3cnc4nc(N)[nH]c(=O)c4n3)cc2)C(=O)O)C(=O)O)cs1)C(C)C (some centres unmarked) [EC1549] | CR | 78 | 0.90 | 350 | 4.5 | 
7 | CCCCOCN(C(=O)[C@@H](NC(=O)[C@H]1CCCCN1C)C(C)CC)[C@H](C[C@@H](OC(C)=O)c1nc(C(=O)N[C@@H](Cc2ccc(O)cc2)C[C@H](C)C(=O)NNC(=O)OCCSSC[C@@H](NC(=O)[C@H](CCC(=O)NC[C@H](O)[C@@H](O)[C@H](O)[C@H](O)CO)NC(=O)[C@@H](CCC(=O)O)NC(=O)[C@H](CCC(=O)NC[C@H](O)[C@@H](O)[C@H](O)[C@H](O)CO)NC(=O)[C@@H](CCC(=O)O)NC(=O)[C@H](CCC(=O)NC[C@H](O)[C@@H](O)[C@H](O)[C@H](O)CO)NC(=O)CC[C@@H](NC(=O)c2ccc(NCc3cnc4nc(N)[nH]c(=O)c4n3)cc2)C(=O)O)C(=O)O)cs1)C(C)C (some centres unmarked) [EC1663] |  |  |  |  |  | partial responses (test animals) (KB tumors; 0.5 μmol/kg i.v. TIW, 2 weeks): 4/4; whole animal toxicity (KB tumors; 0.5 μmol/kg i.v. TIW, 2 weeks): did not exhibit significant host animal toxicity; also recorded: whole animal toxicity was not observed
8 | CN(Cc1cnc2nc(N)nc(N)c2n1)c1ccc(C(=O)N[C@@H](CCC(=O)O)C(=O)O)cc1 [methotrexate, reference compound] |  |  |  |  |  | binding to the cell surface FRs ([2]; in comparison to EC1669): poor binding
9 | aminopterin hydrazide [EC0470, reference compound] |  |  |  |  |  | AUC of EC1669-derived metabolite [3]: 3.9 nmol·min/mL; elimination half-life of EC1669-derived metabolite [3]: 112 min; Cmax ([3]; plasma, read-out: Cmax of EC1669-derived metabolite): 21 nM

From patent US20200121801A1, “DRUG DELIVERY CONJUGATES CONTAINING UNNATURAL AMINO ACIDS AND METHODS FOR USING” (priority 2012, published 2020)
